Values of other authors as cited in patent publication US20100150868A1, “Methods of Individually Optimizing Treatment for an Inflammation Associated Disease” (Tel HaShomer Medical Research Infrastructure and Services …, priority 2005, published 2010).

Tested on: TNF-α secretion of MOG stimulated PBMC
Conditions: in vitro, 10 μg/ml

## Glatiramer acetate [Copaxone]
  inhibitory effect on TNF-α producing cells compared with in-vivo experiments: same inhibitory effect
